According to US6951727B2, “Methods and reagents for quantitation of cell-surface molecule expression on peripheral blood cells” (Becton Dickinson and Company, priority 1998, dated 2005):
“Also recorded” adds a separate entry of the source. Where two headings read alike, the source gives them in different places.

Tests used:
[1] = system: CD11b on human blood cells; experiment: Stabilization of CD11b-specific fluorescent signal during antibody staining of whole blood, flow cytometry; format: cell-based; settings: 3 mM final concentration, whole blood of three normal donors
Method: Blood from three normal adult donors was collected in standard EDTA Vacutainer® tubes and placed directly on ice. Fifty (50) μl of whole blood was transferred to a tube containing 20 μl of a cocktail of CD11b PE and CD45 PerCP antibodies with or without chloroquine, with the chloroquine-containing tubes having a final chloroquine concentration of 3 mM. Blood was stained for the indicated time at room temperature before addition of 1.0 ml FACS lysing reagent (1×). Flow cytometric analysis was performed essentially as described in Examples 1 and 2.

[2] = system: HLA-DR on CD14+ peripheral blood monocytes; experiment: Stabilization of HLA-DR-specific fluorescent signal during anti-HLA-DR antibody staining of whole blood, flow cytometry; format: cell-based, human
Method: Peripheral blood samples were drawn from normal volunteers.
The time-dependence of the HLA-DR-specific signal detectable by flow cytometry of antibody-stained peripheral blood monocytes was assessed by varying the duration of antibody staining.
The effect of various additives on the stability of HLA-DR-specific fluorescence intensity was tested by including these reagents during the staining step.
Incubation was at room temperature for the times indicated, after which 1 ml of 1× FACS™ Lysing Solution was added and incubation continued for 10 minutes.
Following erythrocyte lysis, the samples were centrifuged at 250×g for 5 minutes, the supernatant removed, the pellet resuspended in 2 ml of PBS+0.5% BSA and recentrifuged. The final pellet was suspended in 0.5 ml of PBS+BSA and analyzed by flow cytometry, as above. Results are plotted in FIG. 2A.
A second experiment, reported in FIG. 2B, was performed similarly, but omitting the post-lysis wash step: following erythrocyte lysis, the samples were centrifuged at 250×g for 5 minutes, the supernatant, containing lysis debris, removed, and the pellet resuspended directly in 0.5 ml of PBS+0.5% BSA. Again, flow cytometric acquisition of at least 2000 monocyte events was performed, and the PE fluorescence intensity of the monocyte population plotted.
To test whether Brefeldin A and monensin would similarly stabilize HLA-DR expression in the flow cytometric assay, an additional series of experiments was performed.
To 50 μl EDTA-anticoagulated whole blood was added 10 μl staining reagent (500 ng of HLA-DR-PE and 63 ng CD14-PerCP/CY5.5 in buffered saline containing gelatin and 0.1% sodium azide); the staining reagent further included the additives noted below. Samples were incubated with staining reagent for the times indicated, after which 1 ml of 1× FACS™ Lysing Solution was added. After incubation with lysing solution for 9.5 to 11.5 minutes, samples were directly analyzed using a FACSCalibur™ brand flow cytometer (BDIS, San Jose, Calif.).
Additives to the staining composition for this latter series of experiments, reported in FIG. 2C, were: (A) nothing (“Control”); (B) 18 mM chloroquine; (C) 0.2 mM Brefeldin A; and (D) 0.013 mM monensin. Final concentrations of additives after 1:6 dilution during staining were: (B) 3 mM chloroquine; (C) 0.034 mM Brefeldin A; and (D) 0.0022mM monensin. […] 212:89-98 (1998).
The data presented in FIG. 2C were acquired immediately after lysis; in contrast to experiments the results of which are presented in FIG. 1, the removal of lysis debris (by centrifugation and aspiration, optionally followed by wash) was omitted.
A further experiment was performed to determine the minimum concentration of chloroquine needed to effect stabilization of HLA-DR expression on the surface of monocytes.
An aliquot of 50 μl peripheral blood was drawn from a healthy volunteer and mixed with 10 μl HLA-DR quantitation reagent (50 μg/ml HLA-DR PE, 6.3 μg/ml CD14 PerCP-Cy5.5, in 10 mM sodium pyrophosphate, 0.15 M NaCl, pH 8). The HLA-DR quantitation reagent further contained chloroquine at 0 mM (control), 6 mM, 12 mM, or 18 mM.
In each experiment, 4 blood samples were stained for each chloroquine level, with one each of the samples stained for 20, 40, 60 or 80 minutes.
At the end of the staining period, the samples were lysed with 1× FACS™ Lysing Solution (BDIS) and analyzed on a FACScalibur Flow Cytometer. Five hundred monocyte events were collected.

[3] = system: monocyte HLA-DR expression; settings: cited from earlier work
[4] = additive during staining, final concentration 3 mM chloroquine, 0.1% azide, 0.034 mM Brefeldin A, 0.0022 mM monensin, 10-15 to 60 min incubation

CCN(CC)CCCC(C)Nc1ccnc2cc(Cl)ccc12 (stereo not shown) [chloroquine]
stabilization of CD11b fluorescent signal over staining time [1]: can similarly be stabilized | minimum concentration needed to effect HLA-DR stabilization [2]: 2 mM | stabilization of HLA-DR expression at 1 mM [2]: insufficient to effect stabilization | stabilization of HLA-DR fluorescence signal over incubation time [2]: reliably stabilized HLA-DR fluorescence; also recorded: stabilizes the HLA-DR fluorescence signal

CC[C@@]1([C@@H]2O[C@@H]([C@H]3O[C@@](O)(CO)[C@H](C)C[C@@H]3C)C[C@@H]2C)CC[C@H]([C@]2(C)CC[C@]3(C[C@H](O)[C@@H](C)[C@@H]([C@@H](C)[C@@H](OC)[C@H](C)C(=O)O)O3)O2)O1 [monensin]
stabilization of HLA-DR fluorescence signal over incubation time [2, 4]: no significant stabilization

C[C@H]1CCC/C=C/[C@@H]2C[C@H](O)C[C@H]2[C@H](O)/C=C/C(=O)O1 [Brefeldin A]
stabilization of HLA-DR fluorescence signal over incubation time [2, 4]: no significant stabilization

Gamma interferon: proinflammatory cytokine, major activator of monocytes
patients showing an increase in monocyte HLA-DR expression within 1 day of treatment ([3]; of 10 septic patients with fewer than 30% HLA-DR positive monocytes): 8 | patients responding within 2 to 3 days ([3]; of 10 septic patients): 2 | TNFα and IL-6 plasma levels during treatment ([3]; septic patients): significant increase

CCN(CCO)CCCC(C)Nc1ccnc2cc(Cl)ccc12 (stereo not shown) [hydroxychloroquine]
stabilizing HLA-DR signal compared with chloroquine ([2]; experiments not shown): equally effective
